Tests used:
Type in all cases: cell-based
Pyricularia grisea = assay: microbe, parasite or virus in culture; conditions: for Average Diameter of the Colony: 1 mg/mL; for inhibition at 1000 µg/mL: read-out: Inhibition Rate
Fusarium graminearum = assay: microbe, parasite or virus in culture; conditions: for Average Diameter of the Colony: 1 mg/mL; for inhibition at 1000 µg/mL: read-out: Inhibition Rate
[1] = test system: Gaeumannomyces graminis var. graminis and G. graminis var. tritici; assay: Ex vivo mycelial growth inhibition, growth rate method; conditions: 1 mg/mL
Text: (§1) 3-(3',4'-methylenedioxy phenyl)-N-n-propyl acrylamide (at a purity of 99%), 3-(3',4'-methylenedioxy phenyl)-piperidine acrylate (at a purity of 99%), the control agents, 96.5% of chlorothalonil technical (non-systemic broad-spectrum fungicide), 97.2% of carbendazim technical (systemic broad-spectrum fungicide), 97.0% of procymidone technical (systemic fungicide), 96.0% of dimethomorphtechnical ((E,Z)-4-[3-(4-chlorphenyl)3-(3,4-dimethoxy phenyl)acryloyl]morpholine, systemic fungicide), 97.0% of azoxystrobin technical (systemic broad-spectrum fungicide).
(§2) The inhibition of samples for testing on the mycelial growth of plant pathogenic fungi for testing is determined with a growth rate method. 3-(3',4'-methylenedioxy phenyl)-N-n-propyl acrylamide, 3-(3',4'-methylenedioxy phenyl)-piperidine acrylate and five control agents are dissolved with dimethyl sulfoxide (DMSO), then formulated at 5-7 concentrations of different gradients for test following the trial test results, with the same concentration of DMSO as the control solvent, each treatment in triplicate. Fungal cakes with a diameter of 4 mm are taken from the edge of the colony, inoculated into the center of a PDA plate containing different agents of different concentrations and the DMSO control, with one piece of fungal cake inoculated in each plate (with a diameter of […]), and incubated in a constant temperature incubator at a temperature of 22±1.5°C. 7 days later (10-20 days may be needed for some pathogenic fungi), the diameter of the colony is measured with a cross over method according to the mycelial growth profile of the control pathogenic fungi, then the inhibition rate of mycelial growth is calculated.
(§3) The computational formula is as below: the inhibition rate of mycelial growth (%) = [(the diameter of the control colony - the diameter of the treated colony)/the diameter of the control colony] × 100.
(§4) The inhibition results of each agent at a concentration of 1 mg/mL on the mycelial growth of plant pathogenic fungi are shown in Tables 1 and 2.

Thanatephorus cucumeris = assay: as above; conditions: 1 mg/mL
Text: as §1, §2, §3, §4

Colletotrichum capsici = assay: as above; conditions: 1 mg/mL; for inhibition at 1000 µg/mL: Colletotrichum truncatum
Text: as §1, §2, §3, §4

Pythium aphanidermatum = assay: as above; conditions: 1 mg/mL
Text: as §1, §2, §3, §4

F. verticillioide = assay: as above; conditions: 1 mg/mL
Text: as §1, §2, §3, §4

[2] = test system: Botryosphaeriana berengeriana; assay: as above; conditions: 1 mg/mL
Text: as §1, §2, §3, §4

[3] = test system: F. oxysporum f. sp. vasinfectum; assay: as above; conditions: 1 mg/mL; for inhibition at 1000 µg/mL: Fusarium oxysporum
Text: as §1, §2, §3, §4

Valsa mali = assay: as above; conditions: 1 mg/mL; for inhibition at 1000 µg/mL: Cytospora mali
Text: as §1, §2, §3, §4

Exserohilum turcicum = assay: as above; conditions: 1 mg/mL
Text: as §1, §2, §3, §4

Mycosphaerlla melonis = assay: as above; conditions: 1 mg/mL
Text: as §1, §2, §3, §4

Coniella diplodiella = assay: as above; conditions: 1 mg/mL
Text: as §1, §2, §3, §4

F. oxysporum f. sp. lini = assay: as above; conditions: 1 mg/mL; for inhibition at 1000 µg/mL: Fusarium oxysporum
Text: as §1, §2, §3, §4

Phytophthora capsici = assay: as above; conditions: for Average Diameter of the Colony / inhibition at 1000 µg/mL: Phytophthora capsici, 1 mg/mL; for antifungal activity against Phytophthora capsici: supplementary determination, compared with hymexazol
Text: as §1, §2, §3, §4

Botrytis cinerea = assay: as above; conditions: 1 mg/mL
Text: as §1, §2, §3, §4

Sclerotinia sclerotiorum = assay: as above; conditions: 1 mg/mL
Text: as §1, §2, §3, §4

Rhizoctonia solani = assay: as above; conditions: for Average Diameter of the Colony / inhibition at 1000 µg/mL: Rhizoctonia solani, 1 mg/mL
Text: as §1, §2, §3, §4

[4] = test system: Botryosphaeria berengeriana; assay: as above; conditions: 1 mg/mL
Text: as §1, §2, §3, §4

C. gossypii = assay: as above; conditions: 1 mg/mL; for Average Diameter of the Colony: C. gossypii; for inhibition at 1000 µg/mL: Colletotrichum gossypii, C. cossypii, read-out: Inhibition Rate
Text: as §1, §2, §3, §4

Phytophthora infestans = assay: microbe, parasite or virus in culture; conditions: 1 mg/mL

SMILES: O=C(/C=C/c1ccc2c(c1)OCO2)N1CCCCC1 [3-(3',4'-methylenedioxyphenyl)-piperidine acrylate]
- Average Diameter of the Colony (Pyricularia grisea): 1.60 cm
- inhibition at 1000 µg/mL (Pyricularia grisea): 82.2%
- Average Diameter of the Colony (Fusarium graminearum): 0.53 cm
- inhibition at 1000 µg/mL (Fusarium graminearum): 90.1%
- Average Diameter of the Colony [1]: 0.39 cm
- inhibition at 1000 µg/mL [1]: 94.5%
- Average Diameter of the Colony (Thanatephorus cucumeris): 0.00 cm
- inhibition at 1000 µg/mL (Thanatephorus cucumeris): 100%
- Average Diameter of the Colony (Colletotrichum capsici): 0.28 cm
- inhibition at 1000 µg/mL (Colletotrichum capsici): 95.9%
- Average Diameter of the Colony (Pythium aphanidermatum): 0.06 cm
- inhibition at 1000 µg/mL (Pythium aphanidermatum): 99.1%
- Average Diameter of the Colony (F. verticillioide): 0.49 cm
- inhibition at 1000 µg/mL (F. verticillioide): 85.5%
- Average Diameter of the Colony [2]: 0.14 cm
- inhibition at 1000 µg/mL [2]: 97.5%
- Average Diameter of the Colony [3]: 0.40 cm
- inhibition at 1000 µg/mL [3]: 94.5%
- Average Diameter of the Colony (Valsa mali): 0.00 cm
- inhibition at 1000 µg/mL (Valsa mali): 100%
- Average Diameter of the Colony (Exserohilum turcicum): 0.34 cm
- inhibition at 1000 µg/mL (Exserohilum turcicum): 94.5%
- Average Diameter of the Colony (Mycosphaerlla melonis): 0.00 cm
- inhibition at 1000 µg/mL (Mycosphaerlla melonis): 100%
- Average Diameter of the Colony (Coniella diplodiella): 0.00 cm
- inhibition at 1000 µg/mL (Coniella diplodiella): 100%
- Average Diameter of the Colony (F. oxysporum f. sp. lini): 2.73 cm
- inhibition at 1000 µg/mL (F. oxysporum f. sp. lini): 69.7%
- Average Diameter of the Colony (Phytophthora capsici): 0.00 cm
- inhibition at 1000 µg/mL (Phytophthora capsici): 100%
- antifungal activity against Phytophthora capsici (Phytophthora capsici): superior to that of the control agent, hymexazol
- Average Diameter of the Colony (Botrytis cinerea): 0.25 cm
- inhibition at 1000 µg/mL (Botrytis cinerea): 96.7%
- Average Diameter of the Colony (Sclerotinia sclerotiorum): 0.00 cm
- inhibition at 1000 µg/mL (Sclerotinia sclerotiorum): 100%
- Average Diameter of the Colony (Rhizoctonia solani): 0.00 cm
- inhibition at 1000 µg/mL (Rhizoctonia solani): 100%
- antifungal activity against Rhizoctonia solani (Rhizoctonia solani; supplementary determination, compared with chlorothalonil, dimethomorph and azoxystrobin): superior to that of chlorothalonil, dimethomorph and azoxystrobin
- Average Diameter of the Colony [4]: 0.22 cm
- inhibition at 1000 µg/mL [4]: 96.8%
- Average Diameter of the Colony (C. gossypii): 0.10 cm
- inhibition at 1000 µg/mL (C. gossypii): 98.2%
- Average Diameter of the Colony (Phytophthora infestans): 0.00 cm

SMILES: CCCNC(=O)/C=C/c1ccc2c(c1)OCO2 [3-(3',4'-methylenedioxyphenyl)-N-n-propyl acrylamide]
- Average Diameter of the Colony (Pyricularia grisea): 5.30 cm
- inhibition at 1000 µg/mL (Pyricularia grisea): 41.1%
- Average Diameter of the Colony (Fusarium graminearum): 2.27 cm
- inhibition at 1000 µg/mL (Fusarium graminearum): 57.6%
- Average Diameter of the Colony [1]: 3.05 cm
- inhibition at 1000 µg/mL [1]: 57.3%
- Average Diameter of the Colony (Thanatephorus cucumeris): 3.51 cm
- inhibition at 1000 µg/mL (Thanatephorus cucumeris): 59.2%
- Average Diameter of the Colony (Colletotrichum capsici): 1.66 cm
- inhibition at 1000 µg/mL (Colletotrichum capsici): 75.5%
- Average Diameter of the Colony (Pythium aphanidermatum): 0.21 cm
- inhibition at 1000 µg/mL (Pythium aphanidermatum): 96.9%
- Average Diameter of the Colony (F. verticillioide): 2.94 cm
- inhibition at 1000 µg/mL (F. verticillioide): 13%
- Average Diameter of the Colony [2]: 4.63 cm
- inhibition at 1000 µg/mL [2]: 18.8%
- Average Diameter of the Colony [3]: 3.03 cm
- inhibition at 1000 µg/mL [3]: 58.1%
- Average Diameter of the Colony (Valsa mali): 0.65 cm
- inhibition at 1000 µg/mL (Valsa mali): 91.8%
- Average Diameter of the Colony (Exserohilum turcicum): 1.44 cm
- inhibition at 1000 µg/mL (Exserohilum turcicum): 76.8%
- Average Diameter of the Colony (Mycosphaerlla melonis): 0.58 cm
- inhibition at 1000 µg/mL (Mycosphaerlla melonis): 93.3%
- Average Diameter of the Colony (Coniella diplodiella): 0.00 cm
- inhibition at 1000 µg/mL (Coniella diplodiella): 100%
- Average Diameter of the Colony (F. oxysporum f. sp. lini): 6.30 cm
- inhibition at 1000 µg/mL (F. oxysporum f. sp. lini): 30%
- Average Diameter of the Colony (Phytophthora capsici): 0.65 cm
- inhibition at 1000 µg/mL (Phytophthora capsici): 87.7%
- antifungal activity against Phytophthora capsici (Phytophthora capsici): superior to that of the control agent, hymexazol
- Average Diameter of the Colony (Botrytis cinerea): 1.35 cm
- inhibition at 1000 µg/mL (Botrytis cinerea): 82%
- Average Diameter of the Colony (Sclerotinia sclerotiorum): 3.28 cm
- inhibition at 1000 µg/mL (Sclerotinia sclerotiorum): 61.9%
- Average Diameter of the Colony (Rhizoctonia solani): 0.25 cm
- inhibition at 1000 µg/mL (Rhizoctonia solani): 96.5%
- Average Diameter of the Colony [4]: 3.60 cm
- inhibition at 1000 µg/mL [4]: 47.1%
- Average Diameter of the Colony (C. gossypii): 1.74 cm
- inhibition at 1000 µg/mL (C. gossypii): 67.8%
- Average Diameter of the Colony (Phytophthora infestans): 0.00 cm
